Here are results for five compounds from patent US6926763B2, “Purine and isosteric antibacterial compounds” (GLSynthesis, Inc., priority 2002, dated 2005).

The MIC is the lowest concentration that inhibits growth of the organism. High values mean weaker potency, low ones greater potency. Broadly, the Papp is the rate of passage across a membrane or cell layer, normalised by area and donor concentration. Low values mean slow passage, high ones fast passage.

In brackets after ≈: the same amount, converted by molar mass. Where two headings read alike, the source gives them in different places.

One data set concerns Enterococcus fecium. Kind of data set: Inhibition of bacterial growth (agar plate MIC), E. fecium. Format: cell-based. As to conditions: agar plates, 37° C., 24 hours; for MIC: Enterococcus. The method, then: (§1) Antimicrobial efficacy may be determined by standard methods of microbial culture in growth medium or on plates of agar supplemented with appropriate growth media. For example, microbes, e.g., mycoplasmata or Gram-positive or Gram-negative bacteria, are grown in the presence of serial dilutions of compounds in an appropriate vehicle, and, after a suitable period of growth, the microbial density is measured by visual or instrumental means. The concentration of compound at which no growth occurs is the minimum inhibitory concentration (MIC) of the compound. Test compounds with an appropriate level of growth inhibition are good candidate therapeutics for further evaluation.
(§2) Each compound was assayed against a panel of Gram-positive Bacilli, Enterococci, and Staphylococci, and Gram-negative Escherichia coli, grown in appropriate plate media solidified with 1.3% agar-agar. […] One tenth mL of diluted bacteria containing 500-1000 colony-forming units (CFU) were plated and spread, and the plates were incubated at 37° C. for 24 hours. MIC (minimum inhibitory concentration) was equivalent to the lowest concentration at which growth, i.e. colony formation, was not observed.

The subject of another data set is MRSA (B42876). Kind of data set: Inhibition of bacterial growth (agar plate MIC), MRSA (B42876). In kind it is cell-based, methicillin-resistant S.a. As to conditions: agar plates, 37° C., 24 hours; for MIC: Staphylococcus aureus, MRSA. Here is the method: as §1, §2
For another data set, the target named is B.s. pol IIIC (Bacillus subtilis, UniProt P13267). Briefly: biochemical. In kind it is biochemical. Here is the method: (§3) The ability of a test compound to inhibit the activity of DNA pol IIIC or pol IIIE enzymes can be tested by using a DNA polymerase assay as described, for example, in Barnes and Brown, Nucl. […] This rapid screening method can use natural or recombinant DNA pol III enzymes in a standard DNA polymerase activity assay. By including a test compound in a side-by-side assay with a control, the effect of the test compound on polymerase activity can be assessed.
(§4) DNA pol III activity was assayed as described in Barnes et al., Nucl.
(§5) Purified pol IIIC or pol IIIE was added to a buffered solution containing Mg^2+, DTT, glycerol, nicked calf thymus DNA, saturating concentrations of dATP, dCTP, dTTP and [^3H]-dTTP. Reaction mixtures were incubated at 30° C. for 10 min, quenched and filtered, and radioactivity in the acid-insoluble material measured by scintillation counting. Experiments were done in triplicate. Inhibitors were assayed by addition of several dilutions of a stock solution of inhibitor (DMSO or water, depending on solubility) before enzyme addition. […] The truncated assay, i.e., exclusion of the competitive substrate dGTP allows for the direct determination of apparent inhibitor constants (Ki) in this assay system.

In a further data set the target is B.s. pol IIIE (Bacillus subtilis, UniProt O34623). Kind of data set: biochemical. In kind it is biochemical. The method, then:
as §3, §4, §5

For a further data set, the system named is Enterococcus fecalis. Kind of data set: Inhibition of bacterial growth (agar plate MIC), E. fecalis. Format: cell-based. As to conditions: agar plates, 37° C., 24 hours; for MIC: Enterococcus. The method, then:
as §1, §2

Another data set is described as follows: in vitro. Format: in vitro ADME. As to conditions: human, Caco-2. From the text: Table 2 summarizes the results of cell membrane permeability assays of representative compounds of the invention. The assay utilizes CaCo2 cell culture monolayers, described by Artursson and Kalsson, Biochem. Biophys. Res.
Another data set concerns the target E.c. pol IIIE (Escherichia coli, UniProt P10443). Kind of data set: biochemical. The method, then: as §3, §4, §5
For a further data set, the system named is Staphylococcus aureus. Briefly: Inhibition of bacterial growth (agar plate MIC), S.a. In kind it is cell-based. As to conditions: agar plates, 37° C., 24 hours. The method, then: as §1, §2
Data set [1] has as its system vancomycin-resistant E. fecium. Briefly: Inhibition of bacterial growth (agar plate MIC), VRE. Format: cell-based, Enterococcus fecium. As to conditions: agar plates, 37° C., 24 hours. Here is the method:
as §1, §2

Another data set deals with Bacillus subtilis. Briefly: Inhibition of bacterial growth (agar plate MIC), B.s. Format: cell-based. As to conditions: agar plates, 37° C., 24 hours; for MIC: Bacillus subtilis. Here is the method: as §1, §2
For a further data set, the system named is S.a. (Smith). Briefly: Inhibition of bacterial growth (agar plate MIC), S.a. (Smith). Format: cell-based, Staphylococcus aureus. As to conditions: agar plates, 37° C., 24 hours. The method, then: as §1, §2
[2] abbreviates: truncated assay without dGTP, apparent Ki, read-out: Ki, B.s. pol IIIC.
The mark [3] stands for this setting: truncated assay without dGTP, apparent Ki.

B.s. pol IIIC, sequence (P13267 whole entry): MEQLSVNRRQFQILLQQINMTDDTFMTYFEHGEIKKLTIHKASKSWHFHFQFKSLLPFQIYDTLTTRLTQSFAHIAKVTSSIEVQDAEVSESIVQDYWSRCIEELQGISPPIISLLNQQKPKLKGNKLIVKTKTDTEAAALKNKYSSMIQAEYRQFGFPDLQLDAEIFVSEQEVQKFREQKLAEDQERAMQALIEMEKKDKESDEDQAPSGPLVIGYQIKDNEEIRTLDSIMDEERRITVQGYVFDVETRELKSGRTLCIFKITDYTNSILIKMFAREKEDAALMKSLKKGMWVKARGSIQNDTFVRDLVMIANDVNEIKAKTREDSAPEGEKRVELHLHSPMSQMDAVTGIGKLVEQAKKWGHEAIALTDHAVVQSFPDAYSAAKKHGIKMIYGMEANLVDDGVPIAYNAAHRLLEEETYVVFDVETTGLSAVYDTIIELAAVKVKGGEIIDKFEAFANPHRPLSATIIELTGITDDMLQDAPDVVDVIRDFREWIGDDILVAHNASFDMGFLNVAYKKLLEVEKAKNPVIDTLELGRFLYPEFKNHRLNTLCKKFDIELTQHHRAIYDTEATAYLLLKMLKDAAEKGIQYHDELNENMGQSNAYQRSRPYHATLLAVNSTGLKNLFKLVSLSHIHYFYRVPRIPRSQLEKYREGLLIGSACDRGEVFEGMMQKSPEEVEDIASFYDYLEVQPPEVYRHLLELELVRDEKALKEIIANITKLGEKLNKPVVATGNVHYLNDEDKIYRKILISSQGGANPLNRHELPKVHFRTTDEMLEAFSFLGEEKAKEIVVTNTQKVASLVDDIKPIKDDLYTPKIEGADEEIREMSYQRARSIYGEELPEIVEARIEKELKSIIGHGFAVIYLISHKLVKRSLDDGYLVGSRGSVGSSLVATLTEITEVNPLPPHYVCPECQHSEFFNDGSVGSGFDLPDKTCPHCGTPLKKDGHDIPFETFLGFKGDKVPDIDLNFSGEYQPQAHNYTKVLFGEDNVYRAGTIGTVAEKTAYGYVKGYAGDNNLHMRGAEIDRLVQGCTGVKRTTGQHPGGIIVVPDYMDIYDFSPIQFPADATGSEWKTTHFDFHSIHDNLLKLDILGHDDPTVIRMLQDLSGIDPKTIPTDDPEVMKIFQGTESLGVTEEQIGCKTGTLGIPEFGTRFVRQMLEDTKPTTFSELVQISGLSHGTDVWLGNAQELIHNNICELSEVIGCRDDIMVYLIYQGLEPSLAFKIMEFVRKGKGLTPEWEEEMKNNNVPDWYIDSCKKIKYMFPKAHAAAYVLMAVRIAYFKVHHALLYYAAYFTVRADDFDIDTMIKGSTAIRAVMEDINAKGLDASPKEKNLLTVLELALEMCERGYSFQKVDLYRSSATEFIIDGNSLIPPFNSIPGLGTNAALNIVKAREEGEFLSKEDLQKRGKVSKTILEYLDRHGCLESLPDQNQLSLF
B.s. pol IIIE, sequence (O34623 whole entry): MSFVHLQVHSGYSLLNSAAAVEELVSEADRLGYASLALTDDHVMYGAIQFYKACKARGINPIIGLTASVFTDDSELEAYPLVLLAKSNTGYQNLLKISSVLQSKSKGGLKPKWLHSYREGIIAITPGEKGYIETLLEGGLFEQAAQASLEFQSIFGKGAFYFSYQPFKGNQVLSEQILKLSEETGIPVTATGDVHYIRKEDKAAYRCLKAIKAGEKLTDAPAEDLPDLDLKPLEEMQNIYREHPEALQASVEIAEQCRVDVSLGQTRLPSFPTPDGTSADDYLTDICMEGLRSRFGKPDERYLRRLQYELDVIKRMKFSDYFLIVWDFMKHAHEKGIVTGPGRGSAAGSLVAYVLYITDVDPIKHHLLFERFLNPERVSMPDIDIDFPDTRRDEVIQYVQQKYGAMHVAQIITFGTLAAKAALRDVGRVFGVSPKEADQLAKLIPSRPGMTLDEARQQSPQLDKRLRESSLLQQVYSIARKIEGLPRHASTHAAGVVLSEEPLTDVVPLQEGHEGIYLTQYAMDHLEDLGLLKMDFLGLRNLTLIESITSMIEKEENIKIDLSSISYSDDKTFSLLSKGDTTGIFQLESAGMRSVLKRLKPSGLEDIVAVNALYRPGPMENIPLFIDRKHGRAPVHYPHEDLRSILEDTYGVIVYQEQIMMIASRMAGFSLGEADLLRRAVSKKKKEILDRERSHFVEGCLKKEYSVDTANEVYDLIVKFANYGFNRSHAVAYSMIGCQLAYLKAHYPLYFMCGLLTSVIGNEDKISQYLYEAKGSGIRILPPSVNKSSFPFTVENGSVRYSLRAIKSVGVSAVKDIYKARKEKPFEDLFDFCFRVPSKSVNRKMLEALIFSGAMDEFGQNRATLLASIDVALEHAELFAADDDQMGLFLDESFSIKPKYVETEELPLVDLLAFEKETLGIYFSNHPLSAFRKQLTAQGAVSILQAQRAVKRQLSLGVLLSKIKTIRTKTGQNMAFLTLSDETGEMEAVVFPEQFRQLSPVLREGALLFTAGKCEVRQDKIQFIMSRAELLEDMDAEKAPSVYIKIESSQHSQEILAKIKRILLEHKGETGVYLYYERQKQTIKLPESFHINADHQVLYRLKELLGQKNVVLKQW
E.c. pol IIIE, sequence (P10443 whole entry): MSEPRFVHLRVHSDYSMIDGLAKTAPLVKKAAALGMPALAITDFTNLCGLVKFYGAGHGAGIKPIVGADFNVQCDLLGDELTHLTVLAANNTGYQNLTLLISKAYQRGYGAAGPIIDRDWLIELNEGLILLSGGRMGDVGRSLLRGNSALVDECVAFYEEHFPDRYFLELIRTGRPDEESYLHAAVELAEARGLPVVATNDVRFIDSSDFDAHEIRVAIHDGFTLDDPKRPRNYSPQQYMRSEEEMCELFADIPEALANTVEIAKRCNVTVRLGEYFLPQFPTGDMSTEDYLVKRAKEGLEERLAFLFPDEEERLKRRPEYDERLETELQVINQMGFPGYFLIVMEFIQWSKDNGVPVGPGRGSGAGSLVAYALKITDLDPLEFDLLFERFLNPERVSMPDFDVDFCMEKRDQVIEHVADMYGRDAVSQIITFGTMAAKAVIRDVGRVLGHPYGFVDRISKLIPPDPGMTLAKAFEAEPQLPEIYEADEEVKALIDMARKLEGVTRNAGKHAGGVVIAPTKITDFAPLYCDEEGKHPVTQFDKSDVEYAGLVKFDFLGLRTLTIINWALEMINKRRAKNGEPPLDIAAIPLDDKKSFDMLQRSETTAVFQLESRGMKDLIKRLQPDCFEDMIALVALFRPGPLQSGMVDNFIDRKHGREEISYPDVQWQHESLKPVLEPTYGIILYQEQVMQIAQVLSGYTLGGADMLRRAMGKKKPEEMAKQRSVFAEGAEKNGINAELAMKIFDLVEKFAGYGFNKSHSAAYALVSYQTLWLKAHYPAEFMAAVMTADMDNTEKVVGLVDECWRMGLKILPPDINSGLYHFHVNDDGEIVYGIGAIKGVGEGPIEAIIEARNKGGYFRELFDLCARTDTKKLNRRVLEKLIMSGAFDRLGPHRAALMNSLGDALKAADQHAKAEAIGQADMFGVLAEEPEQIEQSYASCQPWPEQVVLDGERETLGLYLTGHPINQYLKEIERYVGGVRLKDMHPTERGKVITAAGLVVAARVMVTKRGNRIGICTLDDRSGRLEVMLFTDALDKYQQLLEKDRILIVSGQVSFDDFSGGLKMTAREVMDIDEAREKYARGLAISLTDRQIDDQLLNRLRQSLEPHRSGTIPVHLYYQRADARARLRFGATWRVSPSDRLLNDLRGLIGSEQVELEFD

With `COCCCCCn1cnc2cc(NCc3ccc(Cl)c(Cl)c3)[nH]c(=O)c21` [Compound 3, 2-(3,4-Dichlorobenzylamino)-6-oxo-7-(5-methoxypentyl)-3-deazapurine], the figures for the MIC in the data set with Enterococcus fecium, against MRSA (B42876) and in the data set on Enterococcus fecalis were 1.25 µg/mL (≈ 3.05 µM), 2.5 µg/mL (≈ 6.11 µM) and 5 µg/mL (≈ 12.2 µM), respectively. Further, the Ki came to 0.16 µM on B.s. pol IIIC, 0.42 µM at B.s. pol IIIE and 81 µM on E.c. pol IIIE. Moreover, the apparent permeability coefficient (Papp) in the data set “in vitro” amounted to 13.8 ×10⁻⁶ cm/s.
Turning to `CCc1cc(Nc2cc3ncn(CCCCN4CCOCC4)c3c(=O)[nH]2)ccc1C` [Compound 16, 2-(3-Ethyl-4-methylphenylamino)-6-oxo-7-(4-morpholinylbutyl)-3-deazapurine], the “MIC, E. fecium” value in the data set with Enterococcus fecium was determined as 20 µg/mL (≈ 48.8 µM). Also, the “MIC, S.a.” value in the data set with Staphylococcus aureus was 40 µg/mL (≈ 97.7 µM). Also, in the data set with MRSA (B42876), the “MIC, MRSA (B42876)” value turned out to be 30 µg/mL (≈ 73.3 µM). The “MIC, VRE” value in data set [1] was above 80 µg/mL. For the same compound, at B.s. pol IIIC (setting [2]), the Ki was found to be 1.1 µM. Also, the “Ki, B.s. pol IIIE” value at B.s. pol IIIE (setting [3]) was “inact”. The “MIC, B.s.” value with Bacillus subtilis was 10 µg/mL (≈ 24.4 µM). In addition, the “MIC, E. fecalis” value against Enterococcus fecalis is above 80 µg/mL. Also, the “MIC, S.a. (Smith)” value with S.a. (Smith) was 40 µg/mL (≈ 97.7 µM). Besides, the “Ki, E.c. pol IIIE” value on E.c. pol IIIE (setting [3]) was “inact”.
As for `CCc1cc(Nc2cc3ncn(CCCCCOC)c3c(=O)[nH]2)ccc1C` [Compound 17, 2-(3-Ethyl-4-methylphenylamino)-6-oxo-7-(5-methoxypentyl)-3-deazapurine], the MIC in the data set with Enterococcus fecium was 2.5 µg/mL (≈ 6.78 µM); against MRSA (B42876) it was 2.5 µg/mL (≈ 6.78 µM); in the data set on Bacillus subtilis, 1.25 µg/mL (≈ 3.39 µM); against Enterococcus fecalis it was above 80 µg/mL. The values for the Ki at B.s. pol IIIC and on B.s. pol IIIE were 0.69 µM and 490 µM, respectively. The compound further returned a Papp in the data set “in vitro” of 39.6 ×10⁻⁶ cm/s. Besides, on E.c. pol IIIE (setting [3]), the “Ki, E.c. pol IIIE” value is “inact”.
As for `COCCCCn1c(C)nc2cc(NCc3ccc(Cl)c(Cl)c3)[nH]c(=O)c21` [Compound 6, 2-(3,4-Dichlorobenzylamino)-6-oxo-7-(4-methoxybutyl)-8-methyl-3-deazapurine], the MIC with Enterococcus fecium is 10 µg/mL (≈ 24.4 µM); against Staphylococcus aureus (Staphylococcus aureus) it was 10 µg/mL (≈ 24.4 µM); in the data set with MRSA (B42876), 7.5 µg/mL (≈ 18.3 µM); in data set [1] (Enterococcus, VRE), 10 µg/mL (≈ 24.4 µM); in the data set on Bacillus subtilis it was 2.5 µg/mL (≈ 6.11 µM); against Enterococcus fecalis it was 10 µg/mL (≈ 24.4 µM). Besides, inhibition of growth against S.a. (Smith) (Staphylococcus aureus) (MIC) required 7.5 µg/mL (≈ 18.3 µM). Moreover, the values for the Ki on B.s. pol IIIC, at B.s. pol IIIE and at E.c. pol IIIE were 1.25 µM, 2.5 µM and 426 µM, respectively.
For `O=c1[nH]c(NCc2ccc(Cl)c(Cl)c2)cc2[nH]cnc12` [Compound 1, 2-(3,4-Dichlorobenzylamino)-6-oxo-3-deazapurine], the “MIC, E. fecium” value against Enterococcus fecium came out at 40 µg/mL (≈ 129 µM). In addition, the “MIC, S.a.” value against Staphylococcus aureus worked out at 80 µg/mL (≈ 259 µM). Besides, the “MIC, MRSA (B42876)” value against MRSA (B42876) was 80 µg/mL (≈ 259 µM). Also, the “MIC, VRE” value in [1] was 40 µg/mL (≈ 129 µM). Further, the Ki was 2.2 µM at B.s. pol IIIC (setting [2]); 2.5 µM at B.s. pol IIIE (truncated assay without dGTP, apparent Ki, read-out: Ki, B.s. pol IIIE); 176 µM on E.c. pol IIIE (truncated assay without dGTP, apparent Ki, read-out: Ki, E.c. pol IIIE). The “MIC, B.s.” value against Bacillus subtilis came out at 40 µg/mL (≈ 129 µM). In addition, in the data set with Enterococcus fecalis, the “MIC, E. fecalis” value is 80 µg/mL (≈ 259 µM). In addition, the “MIC, S.a. (Smith)” value in the data set with S.a. (Smith) was 80 µg/mL (≈ 259 µM).
